In general, inhibition refers to how much of the control response was suppressed.

Molecules are shown by their SMILES.

The target of the first assay is AM2 S31 (wild-type serine at position 31 in the M2 protein), influenza virus A/Udorn/72 (Influenza A virus, UniProt P0DOF5). The assay can be described thus: cell-based. Particulars: 100 uM; Xenopus oocytes; activity range class; read-out: S31 OOcyte Inhibition at 100 uM (%).
AM2 S31 (wild-type serine at position 31 in the M2 protein), influenza virus A/Udorn/72, sequence (P0DOF5 whole entry, looked up): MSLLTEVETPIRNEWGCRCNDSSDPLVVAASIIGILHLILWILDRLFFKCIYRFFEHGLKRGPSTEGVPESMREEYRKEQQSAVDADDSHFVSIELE
On to `CC(C)(C)c1ccc(-c2noc(CNC34CC5CC(CC(C5)C3)C4)n2)cc1` [Example 124a, N-((3-(4-(tert-butyl)phenyl)-1,2,4-oxadiazol-5-yl)methyl)adamantan-1-amine], for which the inhibition at 100 µM fell in the range of 0 to 30%. On the same count and under the same terms, with `Nc1ncc(CNC23CC4CC(CC(C4)C2)C3)s1` [Example 93a, 5-((adamantan-1-ylamino)methyl)thiazol-2-amine] the figure was 31 to 95%; with `c1cnc2ccc(CNC34CC5CC(CC(C5)C3)C4)cc2c1` [Example 39a, Adamantan-1-yl-quinolin-6-ylmethyl-amine], 0 to 30%; with `c1cc(CNC23CC4CC(CC(C4)C2)C3)cc(-c2ccco2)c1` [Example 30a, N-(3-(Furan-2-yl)benzyl)adamantan-1-amine], 0 to 30%. As to `Brc1ncc(CNC23CC4CC(CC(C4)C2)C3)cn1` [Example 57a, N-((2-bromopyrimidin-5-yl)methyl)adamantan-1-amine], the inhibition at 100 µM was 0 to 30%. As for `COc1ccc2[nH]c(CNC34CC5CC(CC(C5)C3)C4)cc2c1` [Example 182a], the inhibition at 100 µM was 0 to 30%. Still for that read-out and setting: in the case of `CC(C)c1nc(CNC23CC4CC(CC(C4)C2)C3)no1` [Example 102a, N-((5-isopropyl-1,2,4-oxadiazol-3-yl)methyl)adamantan-1-amine] it was 0 to 30%.

On to `Clc1ccc(-c2cc(CNC34CC5CC(CC(C5)C3)C4)no2)cc1` [Example 119a, N-((5-(4-chlorophenyl)isoxazol-3-yl)methyl)adamantan-1-amine], for which the inhibition at 100 µM fell in the range of 0 to 30%. `CCOc1ccc(CNC23CC4CC(CC(C4)C2)C3)cc1` [Example 1a, Adamantan-1-yl-(4-ethoxy-benzyl)-amine]: the inhibition at 100 µM was 0 to 30%. The same measure, in the same setting: in the case of `COc1ccc(-c2nnc(CNC34CC5CC(CC(C5)C3)C4)o2)cc1` [Example 127a, N-((5-(4-methoxyphenyl)-1,3,4-oxadiazol-2-yl)methyl)adamantan-1-amine] it was 0 to 30%. As for `Brc1nc(CNC23CC4CC(CC(C4)C2)C3)cs1` [Example 83a, N-((2-bromothiazol-4-yl)methyl)adamantan-1-amine], the inhibition at 100 µM was 31 to 95%.

In the case of `Brc1ncc(CNC23CC4CC(CC(C4)C2)C3)s1` [Example 104a, N-((2-bromothiazol-5-yl)methyl)adamantan-1-amine], the inhibition at 100 µM was 0 to 30%. Same read-out and setting: in the case of `c1csc(-c2nc(CNC34CC5CC(CC(C5)C3)C4)no2)c1` [Example 146a, N-((5-(thiophen-2-yl)-1,2,4-oxadiazol-3-yl)methyl)adamantan-1-amine] it was 0 to 30%; in that of `c1ccn2c(CNC34CC5CC(CC(C5)C3)C4)cnc2c1` [Example 203a, Adamantan-1-yl-imidazo[1,2-a]pyridin-3-ylmethyl-amine], 31 to 95%. Still for that read-out and setting: in the case of `c1ccc(-c2nnc(CNC34CC5CC(CC(C5)C3)C4)o2)cc1` [Example 115a, N-((5-phenyl-1,3,4-oxadiazol-2-yl)methyl)adamantan-1-amine] it was 0 to 30%; in that of `Oc1ccc2[nH]c(CNC34CC5CC(CC(C5)C3)C4)cc2c1` [Example 179a], 0 to 30%. Regarding `Fc1ccc(-c2cc(CNC34CC5CC(CC(C5)C3)C4)no2)cc1` [Example 118a, N-((5-(4-fluorophenyl)isoxazol-3-yl)methyl)adamantan-1-amine], the inhibition at 100 µM is 0 to 30%.

On to `c1ccc2nc(CNC34CC5CC(CC(C5)C3)C4)ccc2c1` [Example 56a, Adamantan-1-yl-quinolin-2-ylmethyl-amine], for which the inhibition at 100 µM lay in the range of 31 to 95%. On the same count and under the same terms, with `c1csc(CNC23CC4CC(CC(C4)C2)C3)n1` [Example 71a, Adamantan-1-yl-thiazol-2-ylmethyl-amine] the figure was 31 to 95%.

The same assay, now with this note: Table 1; 100 uM; Xenopus oocytes, pH 5.5, -20 mV; read-out: S31 OOcyte Inhibition at 100 uM (%).
For `c1cc2cn[nH]c2cc1CNC12CC3CC(CC(C3)C1)C2` [Example 95, Adamantan-1-yl-(1H-indazol-6-ylmethyl)-amine], the inhibition at 100 µM was in the range of 31 to 95%. Still for that read-out and setting: with `c1csc(-c2ccc(CNC34CC5CC(CC(C5)C3)C4)cc2)c1` [Example 44, N-(4-(Thiophen-2-yl)benzyl)adamantan-1-amine] the figure was 0 to 30%; with `Oc1cc(O)c(CNC23CC4CC(CC(C4)C2)C3)c(O)c1` [Example 70, 2-(Adamantan-1-ylaminomethyl)-benzene-1,3,5-triol], 0 to 30%. For `Oc1c(F)c(F)c(CNC23CC4CC(CC(C4)C2)C3)c(F)c1F` [Example 71, 4-(Adamantan-1-ylaminomethyl)-2,3,5,6-tetrafluoro-phenol], the inhibition at 100 µM lay within 0 to 30%. For the compound `Oc1ccc(CNC23CC4CC(CC2C4)C3)c(O)c1` [Example 111, 4-[(Hexahydro-2,5-methano-pentalen-3a-ylamino)-methyl]-benzene-1,3-diol], the inhibition at 100 µM was 31 to 95%. The same measure, in the same setting: with `Fc1ccc(CNC23CC4CC(CC(C4)C2)C3)c(F)c1` [Example 54, Adamantan-1-yl-(2,4-difluoro-benzyl)-amine] the figure was 31 to 95%; with `NCc1ccc(CNC23CC4CC(CC(C4)C2)C3)cc1` [Example 13, Adamantan-1-yl-(4-aminomethyl-benzyl)-amine], 0 to 30%. The same measure, in the same setting: with `c1cn2cc(CNC3C4CC5CC(C4)CC3C5)nc2s1` (stereo not shown) [Example 107, Adamantan-2-yl-imidazo[2,1-b]thiazol-6-ylmethyl-amine] the figure was 31 to 95%.

Still in this assay, the particulars now being: Table 3; 100 uM; Xenopus oocytes, pH 5.5, -20 mV; read-out: S31 OOcyte Inhibition at 100 uM (%).
For the compound `Cc1nc(CNC23CC4CC(CC(C4)C2)C3)cs1` [Example 12b, N-((2-methylthiazol-4-yl)methyl)adamantan-1-amine], the inhibition at 100 µM was in the range of 31 to 95%. `Oc1cc(F)ccc1CNC12CC3CC(CC(C3)C1)C2` [Example 6b]: the inhibition at 100 µM fell in the range of 31 to 95%. Consider `Fc1cc(F)cc(-c2cc(CNC34CC5CC(CC(C5)C3)C4)no2)c1` [Example 33b, N-((5-(3,5-difluorophenyl)isoxazol-3-yl)methyl)adamantan-1-amine], for which the inhibition at 100 µM is 0 to 30%. Still for that read-out and setting: in the case of `FC(F)(F)c1nnc(CNC23CC4CC(CC(C4)C2)C3)o1` [Example 14b, N-((5-(trifluoromethyl)-1,3,4-oxadiazol-2-yl)methyl)adamantan-1-amine] it was 0 to 30%; in that of `C1CCC(c2nc(CNC34CC5CC(CC(C5)C3)C4)no2)CC1` [Example 24b], 31 to 95%; in that of `CSC(C)(C)Cc1cc(CNC23CC4CC(CC(C4)C2)C3)no1` [Example 46b, N-((5-(2-methyl-2-(methylthio)propyl)isoxazol-3-yl)methyl)adamantan-1-amine], 0 to 30%. For the compound `CSc1ccccc1-c1cnc(CNC23CC4CC(CC(C4)C2)C3)s1` [Example 76b, Adamantan-1-yl-[5-(2-methylsulfanyl-phenyl)-thiazol-2-ylmethyl]-amine], the inhibition at 100 µM was in the range of 0 to 30%. Take `c1nc(N2CCCC2)ncc1CNC12CC3CC(CC(C3)C1)C2` [Example 54b, N-((2-(pyrrolidin-1-yl)pyrimidin-5-yl)methyl)adamantan-1-amine]: the inhibition at 100 µM lay within 0 to 30%. On to `c1nc(N2CCOCC2)ncc1CNC12CC3CC(CC(C3)C1)C2` [Example 57b, N-((2-morpholinopyrimidin-5-yl)methyl)adamantan-1-amine], for which the inhibition at 100 µM lay in the range of 0 to 30%. On the same count and under the same terms, in the case of `Cc1nnc(CNC23CC4CC(CC(C4)C2)C3)o1` [Example 17b, N-((5-methyl-1,3,4-oxadiazol-2-yl)methyl)adamantan-1-amine] it was 0 to 30%.

Values taken from patent US9884832B2 (priority 2011, dated 2018).
